# According to US20220104481A1, “CRYOPRESERVATION OF STEM CELLS” (TiGenix, S.A.U., priority 2019, published 2022):
# Tested on: ASCs
# Experiment: MTS assay after post-thaw seeding of ASCs pretreated with compounds prior to freezing
# Format: cell-based, human
# Conditions: 24 hours pretreatment before freezing (LY294 10 μM, sc79 10 μM, Exendin-4 20 nM)
# Method: ASCs from donor A were thawed by warming the vials in a 37° C. bath and diluting the freezing medium containing DMSO with fresh complete DMEM (DMEM/F-12 media—GlutaMAX™-I, Gibco, supplemented with 100 μg/mL penicillin/streptomycin and 10% FBS). Cells were centrifuged at 450 g for 6 minutes at room temperature to eliminate leftover DMSO and plated in T-175 flasks at 20.000 cells/cm^2 in complete DMEM.
# A 600 mM stock of NAC (SIGMA) was prepared in Milli-Q water (Millipore). This stock was used for pre-treatment and post-treatment by adding directly 50 μL stock solution per well into 5 mL of medium, making a final concentration of 6 mM. For 2 mM, only 16.7 μL were added per well, and in the case of 12 mM, 100 μL of stock were added. DMSO was used as the vehicle for sc79 and LY294.
# Following the pretreatment step, the medium was removed, the cells were washed with PBS and trypsinized using trypsin-EDTA 0.25% (ThermoFisher) for 8 minutes at 37° C. After trypsin inactivation with complete DMEM, cells were harvested and centrifuged prior to resuspension in freezing medium (FBS with 10% DMSO), and frozen into 500,000 or 1 million cells per vial and stored in liquid nitrogen for further use. Specifically, the cells were frozen at −80° C. for 24 hours in a Cool Cell® device (BioCision) and then transferred to a liquid nitrogen storage container. All experiments were performed in incubators and 37° C., 5% CO2.
# […] The CellTiter 96° Aqueous One Solution Cell Proliferation Assay is a colorimetric method for determining the number of viable cells. The CellTiter 96° Aqueous One Solution reagent contains a tetrazolium compound [3-(4,5-dimethylthiazol-2-yl)-5-(3-carboxymethoxyphenyl)-2-(4-sulfophenyl)-2H-tetrazolium, MTS] and an electron coupling reagent (phenazine ethosulfate; PES). The MTS tetrazolium compound is bioreduced by cells—presumably by NADPH or NADH produced by dehydrogenase enzymes in metabolically active cells—into a coloured formazan product that is soluble in tissue culture medium.
# Briefly, 40 μL of the reagent was added to 200 μL of complete DMEM in each well and absorbance was measured after 2-3 hours at 490 nm using a […]. Each condition was measured in 6 technical repeats. The MTS assay results are presented as percentage of absorbance at 490 nm relative to the non-treated (NT) cells.
row,Molecule,effect of pre-treatment on post-thaw cell number
1,Exendin-4,did not show reproducible effects on cell number
2,O=c1cc(N2CCOCC2)oc2c(-c3ccccc3)cccc12 [LY294],did not show reproducible effects on cell number
3,CCOC(=O)C1=C(N)Oc2ccc(Cl)cc2C1C(C#N)C(=O)OCC (stereo not shown) [sc79],did not show reproducible effects on cell number
4,IL6: pre-treatment assessed in addition to NAC; no concentration given,did not show reproducible effects on cell number
